# Assay results: article PMC11530689, “Anti colorectal cancer activity and in silico studies of novel pyridine nortopsentin analog as cyclin dependent kinase 6 inhibitor” (Scientific Reports, 2024)
# How the values were obtained:
# [1] = test system: HCT-116 cells; assay: MTT assay, IC50 determination; type: cell-based; conditions: Homo sapiens, colorectal cancer HCT-116 cells, 48 h
# Description: HCT-116 (colon cancer cell line) was obtained from the American Type Culture Collection (ATCC). The cancer cell line was grown in Dulbecco’s Modified Eagle’s Medium (DMEM) supplemented with 10% fetal bovine serum (FBS), penicillin/streptomycin (100 U/mL and 100 μg/mL, respectively) and 2 mM L-glutamine. The cells were maintained at 37 °C in 5% CO2.
# (§1) The cytotoxic activity of nortopsintin analogs (4a–4j) was determined by the national cancer institute (NCI, Bethesda, Maryland, USA) against 60 different cancer cell lines at a single concentration of (10^−5 M). For the determination of IC50 value, we used MTT assay kit (Sigma) according to the manufacturer’s protocol. HCT-116 cells were seeded into a 96-well plate at a concentration of 20,000 cells/well. After 24 h, the media was aspirated and replaced with serum-free media containing serial dilutions of the 4i compound. The cells were treated for 48 h in triplicates. […] The percentage of cytotoxicity was calculated using the following equation: % Cytotoxicity = [1 − (AVx/AVNC)] × 100.
# Where, AVx denotes the average absorbance of the sample and AVNC denotes the average absorbance of the negative control. The absorbance was measured at 570 nm with reference at 690 nm.
# [2] = molecular target: CDK2/Cyclin E1 (Homo sapiens, UniProt P24941); assay: Cyclin dependent kinase enzymatic activity assay (ADP-Glo); type: biochemical
# Description: (§2) ADP-Glo™ Kinase Assay kit (Promega, USA) was used for the enzymatic activity analysis according to the manufacturer’s instructions. In brief, to each well we added 1 μl of inhibitor, 2 μl of each cyclin dependent kinase enzymes, and 2 μl of substrate/ATP mix and incubated at room temperature for 60 min. After that 5 μl of ADP‐Glo™ reagent was added and incubated at room temperature for 40 min. 10 μl of kinase detection reagent was added and incubated at room temperature for 30 min, then the luminescence was measured.
# [3] = molecular target: CDK4/Cyclin D3 (Homo sapiens, UniProt P11802); assay: as above; type: biochemical
# CDK4/Cyclin D3, sequence (P11802 whole entry): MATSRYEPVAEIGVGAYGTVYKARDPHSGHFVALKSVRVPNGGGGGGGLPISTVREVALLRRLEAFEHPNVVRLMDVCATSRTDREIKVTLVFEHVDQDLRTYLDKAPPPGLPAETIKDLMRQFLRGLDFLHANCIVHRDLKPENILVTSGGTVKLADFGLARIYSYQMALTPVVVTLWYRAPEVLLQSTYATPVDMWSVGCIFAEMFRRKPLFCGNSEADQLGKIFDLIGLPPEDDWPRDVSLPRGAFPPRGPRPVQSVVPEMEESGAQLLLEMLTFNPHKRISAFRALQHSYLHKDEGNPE
# CDK4/Cyclin D3, sequence (P30281 whole entry partner): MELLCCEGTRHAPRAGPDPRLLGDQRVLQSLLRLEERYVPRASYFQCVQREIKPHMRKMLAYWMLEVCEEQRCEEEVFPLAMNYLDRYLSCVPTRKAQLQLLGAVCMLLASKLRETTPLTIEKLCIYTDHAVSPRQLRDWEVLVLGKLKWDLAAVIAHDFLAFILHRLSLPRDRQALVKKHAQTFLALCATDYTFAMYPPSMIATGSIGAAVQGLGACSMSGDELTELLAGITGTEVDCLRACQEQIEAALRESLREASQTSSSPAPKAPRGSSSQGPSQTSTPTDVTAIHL
# Description: as §2
# [4] = molecular target: CDK6/Cyclin D3 (Homo sapiens, UniProt Q00534); assay: as above; type: biochemical
# CDK6/Cyclin D3, sequence (Q00534 whole entry): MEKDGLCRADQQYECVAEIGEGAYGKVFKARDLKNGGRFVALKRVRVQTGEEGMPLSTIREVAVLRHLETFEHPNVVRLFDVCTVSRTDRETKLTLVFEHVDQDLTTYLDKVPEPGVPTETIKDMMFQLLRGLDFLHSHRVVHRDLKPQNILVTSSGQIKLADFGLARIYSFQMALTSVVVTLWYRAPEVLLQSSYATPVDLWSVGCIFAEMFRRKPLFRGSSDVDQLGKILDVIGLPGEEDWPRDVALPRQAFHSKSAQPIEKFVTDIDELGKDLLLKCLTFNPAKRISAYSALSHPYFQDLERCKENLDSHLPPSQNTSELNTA
# CDK6/Cyclin D3, sequence (P30281 whole entry partner): as the sequence (P30281 whole entry partner) above
# Description: as §2
# [5] = test system: 60 different cancer cell lines; assay: NCI screen against 60 cancer cell lines, overall; type: cell-based; conditions: single concentration 10^−5 M
# Description: as §1, with “(4a-4j)” for “(4a–4j)”, “(10^-5” for “(10^−5”, “manufacturer's” for “manufacturer’s”, “compound.” for “compound. The cells were treated for 48 h in triplicates.”, “- ([…])]” for “− (AVx/AVNC)]”
# [6] = test system: BT-549; assay: NCI 60 cell line screen; type: cell-based; conditions: BT-549, Breast Cancer; single concentration 10^−5 M
# Summary of the method: (§3)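 Tested externally (NCI, USA) versus 60 tumour cell lines using a single 10^-5 M concentration to gauge cytotoxicity.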
# [7] = test system: DU-145; assay: NCI 60 cell line screen; type: cell-based; conditions: DU-145, Prostate Cancer; single concentration 10^−5 M
# Summary of the method: as §3
# [8] = test system: EKVX; assay: NCI 60 cell line screen; type: cell-based; conditions: Non-Small Cell Lung Cancer, single concentration 10^−5 M
# Summary of the method: as §3
# [9] = test system: HCT-15; assay: NCI 60 cell line screen; type: cell-based; conditions: HCT-15, Colon Cancer; single concentration 10^−5 M
# Summary of the method: as §3
# [10] = test system: HL-60 (TB); assay: NCI 60 cell line screen; type: cell-based; conditions: Leukemia, single concentration 10^−5 M
# Summary of the method: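 NCI-60 single-point assay, 10^-5 M compound, cytotoxic activity per cell line.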
# [11] = test system: HS 578T; assay: NCI 60 cell line screen; type: cell-based; conditions: Breast Cancer, single concentration 10^−5 M
# Summary of the method: as §3
# [12] = test system: K-562; assay: NCI 60 cell line screen; type: cell-based; conditions: K-562, Leukemia; single concentration 10^−5 M
# Summary of the method: as §3
# [13] = test system: LOX IMVI; assay: NCI 60 cell line screen; type: cell-based; conditions: Melanoma, single concentration 10^−5 M
# Summary of the method: as §3
# [14] = test system: M14; assay: NCI 60 cell line screen; type: cell-based; conditions: M14, Melanoma; single concentration 10^−5 M
# Summary of the method: as §3
# [15] = test system: MDA-MB-468; assay: NCI 60 cell line screen; type: cell-based; conditions: MDA-MB-468, Breast Cancer; single concentration 10^−5 M
# Summary of the method: as §3
# [16] = test system: MOLT-4; assay: NCI 60 cell line screen; type: cell-based; conditions: MOLT-4, Leukemia; single concentration 10^−5 M
# Summary of the method: as §3
# [17] = test system: NCI-H226; assay: NCI 60 cell line screen; type: cell-based; conditions: NCI-H226, Non-Small Cell Lung Cancer; single concentration 10^−5 M
# Summary of the method: as §3
# [18] = test system: NCI-H23; assay: NCI 60 cell line screen; type: cell-based; conditions: NCI-H23, Non-Small Cell Lung Cancer; single concentration 10^−5 M
# Summary of the method: as §3
# [19] = test system: OVCAR-3; assay: NCI 60 cell line screen; type: cell-based; conditions: OVCAR-3, Ovarian Cancer; single concentration 10^−5 M
# Summary of the method: as §3
# [20] = test system: RPMI-8226; assay: NCI 60 cell line screen; type: cell-based; conditions: RPMI-8226, Leukemia; single concentration 10^−5 M
# Summary of the method: as §3
# [21] = test system: SF-268; assay: NCI 60 cell line screen; type: cell-based; conditions: SF-268, CNS Cancer; single concentration 10^−5 M
# Summary of the method: as §3
# [22] = test system: SK-MEL-28; assay: NCI 60 cell line screen; type: cell-based; conditions: SK-MEL-28, Melanoma; single concentration 10^−5 M
# Summary of the method: as §3
# [23] = test system: SK-MEL-2; assay: NCI 60 cell line screen; type: cell-based; conditions: SK-MEL-2, Melanoma; single concentration 10^−5 M
# Summary of the method: as §3
# [24] = test system: SK-OV-3; assay: NCI 60 cell line screen; type: cell-based; conditions: SK-OV-3, Ovarian Cancer; single concentration 10^−5 M
# Summary of the method: as §3
# [25] = test system: SN12C; assay: NCI 60 cell line screen; type: cell-based; conditions: Renal Cancer, single concentration 10^−5 M
# Summary of the method: as §3
# [26] = test system: SNB-75; assay: NCI 60 cell line screen; type: cell-based; conditions: SNB-75, CNS Cancer; single concentration 10^−5 M
# Summary of the method: as §3
# [27] = test system: T-47D; assay: NCI 60 cell line screen; type: cell-based; conditions: Breast Cancer, single concentration 10^−5 M
# Summary of the method: as §3
# [28] = test system: TK-10; assay: NCI 60 cell line screen; type: cell-based; conditions: TK-10, Renal Cancer; single concentration 10^−5 M
# Summary of the method: as §3
smiles,measurement,setting,value
CN(C)c1ccc(-c2cc(-c3c[nH]c4ccccc34)nc(-c3c[nH]c4ccccc34)c2C#N)cc1 [4i],IC50,[1],28.8 nM
same,IC50,[2],658 nM
same,IC50,[3],265 nM
same,IC50,[4],98 nM
same,cytotoxic / antiproliferative activity over the panel,[5],highest level of cytotoxic activity
same,Growth %,[6],103.60%
same,Growth %,[7],99.65%
same,Growth %,[8],93.75%
same,Growth %,[9],44.65%
same,Growth %,[10],85.35%
same,Growth %,[11],104.13%
same,Growth %,[12],39.74%
same,Growth %,[13],70.02%
same,Growth %,[14],97.66%
same,Growth %,[15],81.79%
same,Growth %,[16],98.39%
same,Growth %,[17],79.62%
same,Growth %,[18],88.40%
same,Growth %,[19],91.03%
same,Growth %,[20],69.39%
same,Growth %,[21],96.47%
same,Growth %,[22],101.89%
same,Growth %,[23],102.08%
same,Growth %,[24],94.88%
same,Growth %,[25],92.07%
same,Growth %,[26],86.73%
same,Growth %,[27],95.86%
same,Growth %,[28],107.28%
N#Cc1c(-c2ccc(O)cc2)cc(-c2c[nH]c3ccccc23)nc1-c1c[nH]c2ccccc12 [4j],Growth %,[6],96.81%
same,Growth %,[7],104.31%
same,Growth %,[8],100.08%
same,Growth %,[9],57.19%
same,Growth %,[10],107.76%
same,Growth %,[11],89.18%
same,Growth %,[12],67.98%
same,Growth %,[13],62.75%
same,Growth %,[14],100.26%
same,Growth %,[15],101.94%
same,Growth %,[16],87.60%
same,Growth %,[17],86.10%
same,Growth %,[18],89.30%
same,Growth %,[19],92.93%
same,Growth %,[20],101.54%
same,Growth %,[21],105.02%
same,Growth %,[22],76.45%
same,Growth %,[23],100.11%
same,Growth %,[24],96.54%
same,Growth %,[25],95.63%
same,Growth %,[26],90.85%
same,Growth %,[27],98.31%
same,Growth %,[28],149.07%
